Measurements from patent publication US20190315823A1, “SMALL CATIONIC ANTI-BIOFILM AND IDR PEPTIDES” (priority 2013, published 2019).
Ends that are not written are not given here.

test system: LPS-stimulated human peripheral blood mononuclear cells (IL1-β); assay: not given; type: cell-based; details: Table 12; cells stimulated with 10 ng/ml LPS

Substance | Fold change in IL1β relative to no peptide LPS stimulated cells
1018-L7: single substituted 1018 peptide (VRLIVALRIWRR-NH2) [Peptide 1018-L7] | 0.10
HH2-G12: single substituted HH2 peptide (VQLRIRVAVIRG-NH2) | 1.09
1002-K9: single substituted 1002 peptide (VQRWLIVWKIRK-NH2) [Peptide 1002-K9] | 0.05
1002-K1: single substituted 1002 peptide (KQRWLIVWRIRK-NH2) [Peptide 1002-K1] | 0.05
1018-W2: single substituted 1018 peptide (VWLIVAVRIWRR-NH2) [Peptide 1018-W2] | 0.73
HH2-Q5: single substituted HH2 peptide (VQLRQRVAVIRA-NH2) | 0.98
HH2-V2: single substituted HH2 peptide (VVLRIRVAVIRA-NH2) | 0.97
1018-K5: single substituted 1018 peptide (VRLIKAVRIWRR-NH2) [Peptide 1018-K5] | 1.31
1018-I11: single substituted 1018 peptide (VRLIVAVRIWIR-NH2) [Peptide 1018-I11] | 1.35
HH2-K12: single substituted HH2 peptide (VQLRIRVAVIRK-NH2) | 0.92
HH2-G1: single substituted HH2 peptide (GQLRIRVAVIRA-NH2) | 1.17
1002-Q6: single substituted 1002 peptide (VQRWLQVWRIRK-NH2) [Peptide 1002-Q6] | 0.35
1018-G10: single substituted 1018 peptide (VRLIVAVRIGRR-NH2) [Peptide 1018-G10] | 0.46
1002-K10: single substituted 1002 peptide (VQRWLIVWRKRK-NH2) [Peptide 1002-K10] | 0.05
HH2-K4: single substituted HH2 peptide (VQLKIRVAVIRA-NH2) | 0.58
1018-A8: single substituted 1018 peptide (VRLIVAVAIWRR-NH2) [Peptide 1018-A8] | 0.10

same assay, conditions: Table 12; cells stimulated with 10 ng/ml LPS; LPS alone 1313 (HH2 derivatives), 1927 (1018 derivatives), 2455 (1002 and hybrid peptides) pg/ml

Substance | IL1β Production [pg/mL]
1018-L7: single substituted 1018 peptide (VRLIVALRIWRR-NH2) [Peptide 1018-L7] | 132
HH2-G12: single substituted HH2 peptide (VQLRIRVAVIRG-NH2) | 1433
1002-K9: single substituted 1002 peptide (VQRWLIVWKIRK-NH2) [Peptide 1002-K9] | 127
1002-K1: single substituted 1002 peptide (KQRWLIVWRIRK-NH2) [Peptide 1002-K1] | 127
1018-W2: single substituted 1018 peptide (VWLIVAVRIWRR-NH2) [Peptide 1018-W2] | 962
HH2-Q5: single substituted HH2 peptide (VQLRQRVAVIRA-NH2) | 1284
HH2-V2: single substituted HH2 peptide (VVLRIRVAVIRA-NH2) | 1267
1018-K5: single substituted 1018 peptide (VRLIKAVRIWRR-NH2) [Peptide 1018-K5] | 1722
1018-I11: single substituted 1018 peptide (VRLIVAVRIWIR-NH2) [Peptide 1018-I11] | 1775
HH2-K12: single substituted HH2 peptide (VQLRIRVAVIRK-NH2) | 1203
HH2-G1: single substituted HH2 peptide (GQLRIRVAVIRA-NH2) | 1533
1002-Q6: single substituted 1002 peptide (VQRWLQVWRIRK-NH2) [Peptide 1002-Q6] | 859
1018-G10: single substituted 1018 peptide (VRLIVAVRIGRR-NH2) [Peptide 1018-G10] | 605
1002-K10: single substituted 1002 peptide (VQRWLIVWRKRK-NH2) [Peptide 1002-K10] | 127
HH2-K4: single substituted HH2 peptide (VQLKIRVAVIRA-NH2) | 759
1018-A8: single substituted 1018 peptide (VRLIVAVAIWRR-NH2) [Peptide 1018-A8] | 127

test system: methicillin resistant Staphylococcus aureus (MRSA) biofilm; assay: not given; details: approximate peptide concentration […] (around 3 μg/ml); compared to untreated samples
In short: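 Peptide was present from inoculation onward, with bacteria seeded at 1/100 from overnight cultures into BM2 biofilm medium or Luria Broth. Crystal violet staining of surface-attached cells (A595) quantified biofilm reduction at 22–46 h. K. pneumoniae was additionally screened in a real-time Bioflux flow device for some peptides.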

Substance | % Biofilm inhibition [%]
1018-L7: single substituted 1018 peptide (VRLIVALRIWRR-NH2) [Peptide 1018-L7] | 72
HH2-G12: single substituted HH2 peptide (VQLRIRVAVIRG-NH2) | 69
1002-K9: single substituted 1002 peptide (VQRWLIVWKIRK-NH2) [Peptide 1002-K9] | 50
1002-K1: single substituted 1002 peptide (KQRWLIVWRIRK-NH2) [Peptide 1002-K1] | 75
1018-W2: single substituted 1018 peptide (VWLIVAVRIWRR-NH2) [Peptide 1018-W2] | 68
HH2-Q5: single substituted HH2 peptide (VQLRQRVAVIRA-NH2) | 25
HH2-V2: single substituted HH2 peptide (VVLRIRVAVIRA-NH2) | 77
1018-K5: single substituted 1018 peptide (VRLIKAVRIWRR-NH2) [Peptide 1018-K5] | 29
1018-I11: single substituted 1018 peptide (VRLIVAVRIWIR-NH2) [Peptide 1018-I11] | 16
HH2-K12: single substituted HH2 peptide (VQLRIRVAVIRK-NH2) | 67
HH2-G1: single substituted HH2 peptide (GQLRIRVAVIRA-NH2) | 65
1002-Q6: single substituted 1002 peptide (VQRWLQVWRIRK-NH2) [Peptide 1002-Q6] | 22
1018-G10: single substituted 1018 peptide (VRLIVAVRIGRR-NH2) [Peptide 1018-G10] | 55
1002-K10: single substituted 1002 peptide (VQRWLIVWRKRK-NH2) [Peptide 1002-K10] | 0
HH2-K4: single substituted HH2 peptide (VQLKIRVAVIRA-NH2) | 65
1018-A8: single substituted 1018 peptide (VRLIVAVAIWRR-NH2) [Peptide 1018-A8] | 60

test system: human peripheral blood mononuclear cells (MCP-1); assay: SPOT-synthesized derivative screen: production of chemokine MCP-1; type: cell-based; details: Table 12; No LPS; human PBMC, peptide at ~18-24 μM
In short: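 MCP-1 was quantified by capture ELISA in cleared culture supernatants of treated human peripheral blood mononuclear cells. Cells came from heparinized volunteer blood via Ficoll gradient and were seeded at 0.75 to 1×10^6 cells/ml (37 °C, 5% CO2).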

Substance | Fold increase in MCP1 cf. untreated cells
1018-L7: single substituted 1018 peptide (VRLIVALRIWRR-NH2) [Peptide 1018-L7] | 0.9
HH2-G12: single substituted HH2 peptide (VQLRIRVAVIRG-NH2) | 68
1002-K9: single substituted 1002 peptide (VQRWLIVWKIRK-NH2) [Peptide 1002-K9] | 1.6
1002-K1: single substituted 1002 peptide (KQRWLIVWRIRK-NH2) [Peptide 1002-K1] | 26.4
1018-W2: single substituted 1018 peptide (VWLIVAVRIWRR-NH2) [Peptide 1018-W2] | 1.5
HH2-Q5: single substituted HH2 peptide (VQLRQRVAVIRA-NH2) | 4.5
HH2-V2: single substituted HH2 peptide (VVLRIRVAVIRA-NH2) | 24
1018-K5: single substituted 1018 peptide (VRLIKAVRIWRR-NH2) [Peptide 1018-K5] | 0.9
1018-I11: single substituted 1018 peptide (VRLIVAVRIWIR-NH2) [Peptide 1018-I11] | 1.5
HH2-K12: single substituted HH2 peptide (VQLRIRVAVIRK-NH2) | 15
HH2-G1: single substituted HH2 peptide (GQLRIRVAVIRA-NH2) | 1.9
1002-Q6: single substituted 1002 peptide (VQRWLQVWRIRK-NH2) [Peptide 1002-Q6] | 0.9
1018-G10: single substituted 1018 peptide (VRLIVAVRIGRR-NH2) [Peptide 1018-G10] | 0.8
1002-K10: single substituted 1002 peptide (VQRWLIVWRKRK-NH2) [Peptide 1002-K10] | 0.9
HH2-K4: single substituted HH2 peptide (VQLKIRVAVIRA-NH2) | 10
1018-A8: single substituted 1018 peptide (VRLIVAVAIWRR-NH2) [Peptide 1018-A8] | 3.7

same assay, conditions: Table 12; No LPS; human PBMC, peptide at ~18-24 μM; background subtracted 139 (HH2 derivatives), 170 (1018 derivatives), 242 (1002 and hybrid peptides) pg/ml

Substance | MCP1 [pg/mL]
1018-L7: single substituted 1018 peptide (VRLIVALRIWRR-NH2) [Peptide 1018-L7] | -10
HH2-G12: single substituted HH2 peptide (VQLRIRVAVIRG-NH2) | 11442
1002-K9: single substituted 1002 peptide (VQRWLIVWKIRK-NH2) [Peptide 1002-K9] | 143.9
1002-K1: single substituted 1002 peptide (KQRWLIVWRIRK-NH2) [Peptide 1002-K1] | 6146.9
1018-W2: single substituted 1018 peptide (VWLIVAVRIWRR-NH2) [Peptide 1018-W2] | 83
HH2-Q5: single substituted HH2 peptide (VQLRQRVAVIRA-NH2) | 603
HH2-V2: single substituted HH2 peptide (VVLRIRVAVIRA-NH2) | 3945
1018-K5: single substituted 1018 peptide (VRLIKAVRIWRR-NH2) [Peptide 1018-K5] | -10
1018-I11: single substituted 1018 peptide (VRLIVAVRIWIR-NH2) [Peptide 1018-I11] | 83
HH2-K12: single substituted HH2 peptide (VQLRIRVAVIRK-NH2) | 2329
HH2-G1: single substituted HH2 peptide (GQLRIRVAVIRA-NH2) | 157
1002-Q6: single substituted 1002 peptide (VQRWLQVWRIRK-NH2) [Peptide 1002-Q6] | -36.2
1018-G10: single substituted 1018 peptide (VRLIVAVRIGRR-NH2) [Peptide 1018-G10] | -41
1002-K10: single substituted 1002 peptide (VQRWLIVWRKRK-NH2) [Peptide 1002-K10] | -32.5
HH2-K4: single substituted HH2 peptide (VQLKIRVAVIRA-NH2) | 1553
1018-A8: single substituted 1018 peptide (VRLIVAVAIWRR-NH2) [Peptide 1018-A8] | 460
